Experimental data published in PubChem BioAssay AID330 (DTP/NCI, 2004).
Where “and” joins values, the source holds several entries; their conditions need not be identical. Equal entries are not always repeated. Toxic doses and inconclusive results are not listed. Rule for the calls: active = survival T/C of 150% or more; inactive = T/C below 125% in these data. Peptide text beside a SMILES is read from it. * marks the point of attachment. Boc = CC(C)(C)OC(=O)*; OtBu = CC(C)(C)O*; NHNH2 = NN*

Tested on: P388 leukemia ip, CD2F1 mice, survival T/C
Experiment: NCI In Vivo Anticancer Drug Screen. Data for tumor model P388 Leukemia (intraperitoneal) in CD2F1 (CDF1) mice
Conditions: endpoint: median survival time, higher = longer survival
Outline: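 Mice carrying the transplanted tumor received test compound or vehicle. Survival was recorded in each group, and the value is the treated-group measurement divided by that of the vehicle-treated control group.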

[1] = dose: 50.0 mg/kg/injection, schedule: Q01DX005 (ip), vehicle: saline with Tween-80
[2] = dose: 100.0 mg/kg/injection, schedule: Q01DX005 (ip), vehicle: saline with Tween-80
[3] = dose: 200.0 mg/kg/injection, schedule: Q01DX005 (ip), vehicle: saline with Tween-80
[4] = dose: 50.0 mg/kg/injection, schedule: Q01DX009 (ip), vehicle: saline
[5] = dose: 100.0 mg/kg/injection, schedule: Q01DX009 (ip), vehicle: saline
[6] = dose: 200.0 mg/kg/injection, schedule: Q01DX009 (ip), vehicle: saline
[7] = dose: 25.0 mg/kg/injection, schedule: Q01DX009 (ip), vehicle: saline with Tween-80
[8] = dose: 50.0 mg/kg/injection, schedule: Q01DX009 (ip), vehicle: saline with Tween-80
[9] = dose: 100.0 mg/kg/injection, schedule: Q01DX009 (ip), vehicle: saline with Tween-80
[10] = dose: 200.0 mg/kg/injection, schedule: Q01DX009 (ip), vehicle: saline with Tween-80
[11] = dose: 50.0 mg/kg/injection, schedule: Q01DX009 (ip), vehicle: Klucel (hydroxypropylcellulose) (HPC)
[12] = dose: 100.0 mg/kg/injection, schedule: Q01DX009 (ip), vehicle: Klucel (hydroxypropylcellulose) (HPC)
[13] = dose: 25.0 mg/kg/injection, schedule: Q01DX001 (ip), vehicle: saline with Tween-80

Measured: T/C

CCn1c2ccccc2c2cc(N=Nc3ccc(N)nc3N)ccc21
inactive: [1] 94 % of control | [2] 94 % of control | [3] 96 % of control

Cn1c([N+](=O)[O-])cnc1/C=[N+](\[O-])C1CCCCC1
inactive: [4] 100 % of control | [5] 100 % of control | [6] 102 % of control

CCOC(=O)c1sc(N)nc1C
inactive: dose: 9.0 mg/kg/injection, schedule: Q01DX009 (ip), vehicle: saline with Tween-80 111 % of control | dose: 18.0 mg/kg/injection, schedule: Q01DX009 (ip), vehicle: saline with Tween-80 90 % of control | [7] 105 % of control | dose: 36.0 mg/kg/injection, schedule: Q01DX009 (ip), vehicle: saline with Tween-80 99 % of control | [8] 106 % of control and 112 % of control and 113 % of control | [9] 108 % of control and 115 % of control and 97 % of control | [10] 102 % of control and 112 % of control

CC(=O)Oc1ccc(OC(C)=O)c2cc3c(cc12)C(=O)C(C)=C(C)C3=O
inactive: dose: 50.0 mg/kg/injection, schedule: Q01DX005 (ip), vehicle: Klucel (hydroxypropylcellulose) (HPC) 89 % of control | dose: 100.0 mg/kg/injection, schedule: Q01DX005 (ip), vehicle: Klucel (hydroxypropylcellulose) (HPC) 97 % of control | dose: 200.0 mg/kg/injection, schedule: Q01DX005 (ip), vehicle: Klucel (hydroxypropylcellulose) (HPC) 111 % of control

O=C1C2CN(Cc3ccccc3)CC2C(=O)N1c1ccccc1 (stereo not given)
inactive: dose: 60.0 mg/kg/injection, schedule: Q01DX005 (ip), vehicle: Klucel (hydroxypropylcellulose) (HPC) 102 % of control | dose: 120.0 mg/kg/injection, schedule: Q01DX005 (ip), vehicle: Klucel (hydroxypropylcellulose) (HPC) 97 % of control | dose: 240.0 mg/kg/injection, schedule: Q01DX005 (ip), vehicle: Klucel (hydroxypropylcellulose) (HPC) 100 % of control

N#CC(=O)Nc1ccc(F)cc1
inactive: dose: 3.75 mg/kg/injection, schedule: Q01DX005 (ip), vehicle: saline with Tween-80 102 % of control | dose: 7.5 mg/kg/injection, schedule: Q01DX005 (ip), vehicle: saline with Tween-80 94 % of control | dose: 15.0 mg/kg/injection, schedule: Q01DX005 (ip), vehicle: saline with Tween-80 100 % of control and 107 % of control

COc1cccc2c1C(=O)C1=C(C2=O)c2c(O)cc(CO)cc2C(O)C1O (stereo not given)
inactive: dose: 6.25 mg/kg/injection, schedule: Q01DX005 (ip), vehicle: saline + Tween-80 + alcohol 113 % of control | dose: 12.5 mg/kg/injection, schedule: Q01DX005 (ip), vehicle: saline + Tween-80 + alcohol 113 % of control | dose: 25.0 mg/kg/injection, schedule: Q01DX005 (ip), vehicle: saline + Tween-80 + alcohol 120 % of control

CC1CCCC(OC(=O)Nc2ccccc2)C1 (stereo not given)
inactive: dose: 100.0 mg/kg/injection, schedule: Q04DX003 (ip), vehicle: saline with Tween-80 105 % of control | dose: 200.0 mg/kg/injection, schedule: Q04DX003 (ip), vehicle: saline with Tween-80 103 % of control | dose: 400.0 mg/kg/injection, schedule: Q04DX003 (ip), vehicle: saline with Tween-80 96 % of control

CC(C)(C)c1ccc2c(O)c(C(C)(C)C)cc(-c3ccccc3)c2c1
inactive: [4] 107 % of control | [5] 110 % of control | [6] 106 % of control

CCCC[As](CCCC)SCC1OC(OC(C)=O)C(OC(C)=O)C(OC(C)=O)C1OC(C)=O (stereo not given)
inactive: [11] 113 % of control | [12] 92 % of control

CCN(CC)CCCC(C)NCCCN (stereo not given)
inactive: dose: 100.0 mg/kg/injection, schedule: Q04DX003 (ip), vehicle: saline 100 % of control | dose: 200.0 mg/kg/injection, schedule: Q04DX003 (ip), vehicle: saline 90 % of control

COC(=O)c1cc(/C=C/c2ccccc2)[nH]c(=O)c1C#N
inactive: dose: 60.0 mg/kg/injection, schedule: Q01DX005 (ip), vehicle: saline with Tween-80 106 % of control | dose: 120.0 mg/kg/injection, schedule: Q01DX005 (ip), vehicle: saline with Tween-80 105 % of control | dose: 240.0 mg/kg/injection, schedule: Q01DX005 (ip), vehicle: saline with Tween-80 98 % of control

Cc1ccc(S(=O)(=O)Oc2ccc3c(/C=C/[N+](=O)[O-])cn(C)c3c2)cc1
inactive: dose: 50.0 mg/kg/injection, schedule: Q01DX001 (ip), vehicle: Klucel (hydroxypropylcellulose) (HPC) 90 % of control | dose: 100.0 mg/kg/injection, schedule: Q01DX001 (ip), vehicle: Klucel (hydroxypropylcellulose) (HPC) 86 % of control | dose: 200.0 mg/kg/injection, schedule: Q01DX001 (ip), vehicle: Klucel (hydroxypropylcellulose) (HPC) 101 % of control

CCCCCCC(/C=C/c1ccc(N(C)C)cc1)=N\O
inactive: [9] 93 % of control | [10] 93 % of control

OC1CC2CCCCC2CC1(O)c1ccc(OCc2ccccc2)c(OCc2ccccc2)c1 (stereo not given)
inactive: [13] 92 % of control | dose: 50.0 mg/kg/injection, schedule: Q01DX001 (ip), vehicle: saline with Tween-80 88 % of control | dose: 100.0 mg/kg/injection, schedule: Q01DX001 (ip), vehicle: saline with Tween-80 86 % of control

O=c1[nH]cc([N+](=O)[O-])c(=O)[nH]1
inactive: dose: 25.0 mg/kg/injection, schedule: Q01DX009 (ip), vehicle: Klucel (hydroxypropylcellulose) (HPC) 94 % of control | [11] 99 % of control | [12] 95 % of control | dose: 100.0 mg/kg/injection, schedule: Q01DX009 (ip), vehicle: distilled water + Tween-80 102 % of control | dose: 200.0 mg/kg/injection, schedule: Q01DX009 (ip), vehicle: Klucel (hydroxypropylcellulose) (HPC) 107 % of control | dose: 200.0 mg/kg/injection, schedule: Q01DX009 (ip), vehicle: distilled water + Tween-80 100 % of control | dose: 400.0 mg/kg/injection, schedule: Q01DX009 (ip), vehicle: distilled water + Tween-80 99 % of control

O=CNc1ccc2c(c1)Cc1cc(Br)ccc1-2
inactive: [7] 93 % of control | [8] 98 % of control | [9] 93 % of control | [10] 88 % of control

CCC(C)C(NC(=O)CNC(=O)OC(C)(C)C)C(=O)NC(C(=O)NC(CCC(=O)OC(C)(C)C)C(=O)NN)C(C)C (stereo not given) (Boc-GIVE(OtBu)-NHNH2; configuration not given here)
inactive: dose: 6.25 mg/kg/injection, schedule: Q01DX001 (ip), vehicle: saline with Tween-80 100 % of control | dose: 12.5 mg/kg/injection, schedule: Q01DX001 (ip), vehicle: saline with Tween-80 100 % of control | [13] 95 % of control

S=c1[nH]c2ccccc2[nH]1
inactive: dose: 6.25 mg/kg/injection, schedule: Q01DX009 (ip), vehicle: saline 98 % of control | dose: 12.5 mg/kg/injection, schedule: Q01DX009 (ip), vehicle: saline 102 % of control | [4] 98 % of control

CC(=O)Nc1ccc(C(F)(F)F)cc1
inactive: dose: 25.0 mg/kg/injection, schedule: Q01DX009 (ip), vehicle: suspension in saline 94 % of control | dose: 50.0 mg/kg/injection, schedule: Q01DX009 (ip), vehicle: suspension in saline 94 % of control | dose: 100.0 mg/kg/injection, schedule: Q01DX009 (ip), vehicle: suspension in saline 86 % of control

C=CC(=O)NC(C)(C)CC(=O)O
inactive: [4] 100 % of control | [5] 100 % of control | [6] 99 % of control

CCOc1nc(OC)c(Cc2c(OC)nc(OCC)c3c2CCCC3)c2c1CCCC2
inactive: dose: 47.5 mg/kg/injection, schedule: Q01DX005 (ip), vehicle: saline + Tween-80 + alcohol 102 % of control | dose: 95.0 mg/kg/injection, schedule: Q01DX005 (ip), vehicle: saline + Tween-80 + alcohol 90 % of control | dose: 190.0 mg/kg/injection, schedule: Q01DX005 (ip), vehicle: saline + Tween-80 + alcohol 87 % of control

C/C(=N\N=C(/[Se])N1CCC(C)CC1)c1ccccn1
inactive: [1] 107 % of control | [2] 100 % of control | [3] 100 % of control
